Test results taken from the NIST ThermoML archive (doi:10.1021/je800110r).
± gives the expanded uncertainty stated by the source.

Conditions: 333.15 K, Liquid, Vibrating tube method

CCCCCCCCCC [decane]
Conditions	mass density [kg/m3]
4738 kPa	703.8 ± 2
4760 kPa	703.6 ± 2
4781 kPa	703.9 ± 2
4846 kPa	703.9 ± 2
4874 kPa	704 ± 2
4903 kPa	703.9 ± 2
4957 kPa	704.1 ± 2
4981 kPa	704.1 ± 2
5033 kPa	704.1 ± 2
5058 kPa	704 ± 2
5078 kPa	704.2 ± 2
5105 kPa	704.2 ± 2
5125 kPa	704.1 ± 2
5153 kPa	704.1 ± 2
5182 kPa	704.1 ± 2
5207 kPa	704.3 ± 2
5223 kPa	704.3 ± 2
5253 kPa	704.2 ± 2
5272 kPa	704.3 ± 2
5288 kPa	704.2 ± 2
5306 kPa	704.4 ± 2
5324 kPa	704.3 ± 2
5342 kPa	704.4 ± 2
5361 kPa	704.3 ± 2
5380 kPa	704.3 ± 2
5399 kPa	704.4 ± 2
5413 kPa	704.4 ± 2
5434 kPa	704.4 ± 2
5450 kPa	704.5 ± 2
5470 kPa	704.5 ± 2
5498 kPa	704.5 ± 2
5514 kPa	704.6 ± 2
5530 kPa	704.6 ± 2
5548 kPa	704.5 ± 2
5567 kPa	704.7 ± 2
5637 kPa	704.6 ± 2
5652 kPa	704.6 ± 2
5669 kPa	704.7 ± 2
5690 kPa	704.7 ± 2
5721 kPa	704.7 ± 2
5735 kPa	704.7 ± 2
6140 kPa	705.1 ± 2
6164 kPa	705 ± 2
6191 kPa	705.1 ± 2
6212 kPa	705.1 ± 2
6234 kPa	705.2 ± 2
6252 kPa	705.2 ± 2
6280 kPa	705.2 ± 2
6299 kPa	705.2 ± 2
6323 kPa	705.2 ± 2
6345 kPa	705.3 ± 2
6367 kPa	705.3 ± 2
6389 kPa	705.2 ± 2
6418 kPa	705.4 ± 2
6437 kPa	705.3 ± 2
6464 kPa	705.3 ± 2
6483 kPa	705.4 ± 2
6513 kPa	705.5 ± 2
6533 kPa	705.4 ± 2
6560 kPa	705.5 ± 2
6595 kPa	705.5 ± 2
6622 kPa	705.6 ± 2
6882 kPa	705.7 ± 2
6909 kPa	705.8 ± 2
6935 kPa	705.8 ± 2
6958 kPa	706 ± 2
6985 kPa	705.9 ± 2
7028 kPa	705.9 ± 2
7059 kPa	706 ± 2
7087 kPa	706 ± 2
7110 kPa	706 ± 2
7135 kPa	705.9 ± 2
7164 kPa	706 ± 2
7188 kPa	706 ± 2
7209 kPa	706.1 ± 2
7243 kPa	706 ± 2
7268 kPa	706.2 ± 2
7306 kPa	706.1 ± 2
7344 kPa	706.2 ± 2
8096 kPa	706.9 ± 2
8122 kPa	706.9 ± 2
8147 kPa	707 ± 2
8166 kPa	707 ± 2
8186 kPa	707 ± 2
8211 kPa	707 ± 2
8236 kPa	707 ± 2
8262 kPa	707 ± 2
8292 kPa	707 ± 2
8315 kPa	707 ± 2
8335 kPa	707 ± 2
8358 kPa	707 ± 2
8381 kPa	707.2 ± 2
8505 kPa	707.3 ± 2
8536 kPa	707.2 ± 2
8561 kPa	707.4 ± 2
8613 kPa	707.4 ± 2
8638 kPa	707.3 ± 2
8740 kPa	707.4 ± 2
8795 kPa	707.5 ± 2
8818 kPa	707.7 ± 2
8851 kPa	707.6 ± 2
8872 kPa	707.6 ± 2
8900 kPa	707.6 ± 2
8924 kPa	707.6 ± 2
9353 kPa	708 ± 2
9380 kPa	708.2 ± 2
9411 kPa	708.1 ± 2
9435 kPa	708.2 ± 2
9465 kPa	708.1 ± 2
9493 kPa	708.1 ± 2
9570 kPa	708.3 ± 2
9598 kPa	708.2 ± 2
9623 kPa	708.2 ± 2
9648 kPa	708.3 ± 2
9680 kPa	708.2 ± 2
9709 kPa	708.3 ± 2
9849 kPa	708.4 ± 2
9874 kPa	708.5 ± 2
9908 kPa	708.6 ± 2
9931 kPa	708.6 ± 2
9958 kPa	708.6 ± 2
9981 kPa	708.6 ± 2
10004 kPa	708.6 ± 2
10023 kPa	708.6 ± 2
10054 kPa	708.6 ± 2
10081 kPa	708.7 ± 2
10109 kPa	708.7 ± 2
10145 kPa	708.8 ± 2
10175 kPa	708.9 ± 2
10207 kPa	708.8 ± 2
10231 kPa	708.8 ± 2
10260 kPa	708.8 ± 2
10298 kPa	708.9 ± 2
10331 kPa	708.7 ± 2
10354 kPa	708.9 ± 2
10384 kPa	709 ± 2
10403 kPa	708.9 ± 2
